Measurements as given in patent US20100190824A1, “Novel Substituted Piperidones as HSP Inducers” (priority 2007, published 2010).

Assays:
[1] = tested on: rat orthotopic liver transplantation model; settings: donors treated; with vehicle all recipients died; cited from earlier work
injured motoneurones = settings: cited from earlier work
[2] = tested on: permeability of blood brain barrier; settings: vascular insult evoked by sub-arachnoidal autologous blood; cited from earlier work
[3] = tested on: streptozotocin-induced neuropathy; settings: cited from earlier work
HSP70b mRNA [4] = test: Cellular expression of HSP-70 mRNA in Hela cells (real-time PCR); assay type: cell-based; settings: fold induction of HSP-70b mRNA relative to the vehicle treated control; 4 hours; normalized to 18S rRNA
Method: (§1) Experiments set forth in this section were conducted to determine whether the compounds of the present invention are able to elevate the expression of HSP-70 gene in cells.
(§2) Hela cell-line or primary mixed neurons derived from neonatal rat cerebellum were employed. Induction was carried out for the indicated dose(s) for 4 hours duration and total RNA was isolated. Expression of HSP70b mRNA along-with expression of 18S rRNA was monitored by real-time PCR. HSP70b mRNA expression was normalized relative to the expression of 18S rRNA.
(§3) The results for test compounds were expressed as fold induction of HSP-70 mRNA relative to vehicle treated control and are as shown in Table 2 & 3.

TNF-α mRNA = test: Inhibition of LPS-induced TNF-α expression in PMA differentiated THP-1 cells; assay type: cell-based, Human; settings: LPS (1 ug/ml) and compound for 4 hours, LPS alone as 100%
Method: The purpose of the present study was to determine the inhibition of lipopolysaccharide(LPS)-induced TNF-α expression in phorbol merstyl ester (PMA) differentiated THP-1 cells.
Human monocytic leukaemia cell line (THP-1), differentiated into macrophage-like cells by PMA treatment was employed. Differentiated cells were treated with either LPS (1 ug/ml) alone or with LPS (1 ug/ml) and compound for 4 hours. Total RNA was isolated and expression of TNF-αmRNA along-with expression of 18S rRNA was monitored by real-time PCR. TNF-α mRNA expression was normalized relative to the expression of 18S rRNA Considering TNF-α expression for cells treated with LPS alone as 100%; the results for test compounds were expressed as % inhibition of TNF-α expression and are as shown in Table 4

HSP70b mRNA [5] = test: Cellular expression of HSP-70 mRNA in primary mixed neurons (real-time PCR); assay type: cell-based; settings: fold induction of HSP70b mRNA relative to vehicle treated control; primary mixed neurons from neonatal rat cerebellum; 4 hours; normalized to 18S rRNA
Method: as §1, §2, §3

male Sprague Dawley rats = test: Neuroprotective activity, transient cerebral ischemia (intraluminal suture occlusion); assay type: in vivo, rat
Method: Transient cerebral ischemia (for 2 hit) was induced in male Sprague Dawley rats of 240-270 g body weight under halothane anaesthesia by the intraluminal suture occlusion technique—inserting a 3-0 polyamide suture from proximal external carotid artery into the lumen of internal carotid artery (Longa E Z. et al. Stroke 20: 84-91; 1989). During the entire surgical procedure for the induction of stroke, the body temperature of the animal was maintained at 37° C., using a homoeothermic blanket. At the end of 2 hrs the suture was removed for reperfusion. The test compound was administered to animals at 8th hour post initiation of occlusion and subsequently at specified interval. At the end of 7 days all the animals were sacrificed and infarct was characterized after staining with triphenyl tetrazolium chloride (TTC). The images of the stained slices were captured using a scanner and was analyzed for infarct size and edema using Scion image software. Neurological scores were obtained at different time points after surgical recovery and improvement was assessed after reperfusion by calculating the percentage change from baseline scores (scores during ischemia).

SMILES: CC(=O)CCC=C(C)CC/C=C(\C)CC/C=C(\C)CCC=C(C)C (mixture of isomers) [Geranylgeranyl acetone]
- 7-day survival of the recipients [1]: ~90%

SMILES: [O-][n+]1cccc(/C(Cl)=N/OC[C@H](O)CN2CCCCC2)c1 [BRX-220]
- motoneurones survived (injured motoneurones; 14 days after injury, 21% in vehicle group): 39%
- motoneurons survived (injured motoneurones; at 10 weeks, 15% in untreated group): 42%

SMILES: OC(CO/N=C(\Cl)c1cccnc1)CN1CCCCC1 (centres unmarked) [Bimoclomol]
- reduction of size of cerebral tissue stained with Evans blue leakage [2]: 39%
- reduction of nerve conduction slowing, motor [3]: 38%
- reduction of nerve conduction slowing, sensory [3]: 42%
- retardation of elevated ischemic resistance [3]: 71%

SMILES: COc1ccc(CC2N(C(=O)C(C)(C)C)CC(=Cc3ccccn3)C(=O)C2(C)C)cc1 (centres unmarked) [Compound 16, 1-(2,2-Dimethyl-propionyl)-2-(4-methoxy-benzyl)-3,3-dimethyl-5-[1-pyridin-2-yl-methylidene]-piperidin-4-one]
- HSP Induction in Hela cells (HSP70b mRNA [4]): (++++) (>1536 fold)
- TNF-alpha Inhibition (TNF-α mRNA): (++++) (>80%)

SMILES: CC1(C)CN(Cc2ccccc2)CC(=Cc2cccc(N3CCOCC3)n2)C1=O [Compound 20, 1-Benzyl-3,3-dimethyl-5-[1-(6-morpholin-4-yl-pyridin-2-yl)-methylidene]-piperidin-4-one]
- HSP Induction in Hela cells (HSP70b mRNA [4]): (+++) (193-1536 fold)
- TNF-alpha Inhibition (TNF-α mRNA): (++) (41-60%)

SMILES: COc1ccc(CC2N(C(=O)Nc3c(C(C)C)cccc3C(C)C)CC(=Cc3ccccn3)C(=O)C2(C)C)cc1 (centres unmarked) [Compound 68, 2-(4-Methoxy-benzyl)-3,3-dimethyl-4-oxo-5-[1-pyridin-2-yl-methylidene]-piperidine-1-carboxylic acid (2,6-diisopropyl-phenyl)-amide]
- HSP Induction in mixed neuron (HSP70b mRNA [5]): (++++) (>16 fold)
- TNF-alpha Inhibition (TNF-α mRNA): (++++) (>80%)
- % reduction Edema (male Sprague Dawley rats; i.p. 15.2 mg/kg, multiple dose, from 8th hour post initiation of occlusion, 2 h ischemia, sacrificed at 7 days): 51.0%
- % reduction Infarct (male Sprague Dawley rats; i.p. 15.2 mg/kg, multiple dose, from 8th hour post initiation of occlusion, 2 h ischemia, sacrificed at 7 days, TTC staining): 30.0%
- % improvement Mean Neurological Score (male Sprague Dawley rats; i.p. 15.2 mg/kg, multiple dose, percentage change from baseline scores (scores during ischemia)): 61.1%
- neuroprotective activity in an animal model of cerebral ischemia (male Sprague Dawley rats; result in words): reduced infarct size and brain edema with improvement in neurological deficit
